Key:
[1] = target: α4β3δ Extra synaptic receptors (GABAA) (Homo sapiens, UniProt P28472+P48169); test: GABAA receptor potency and efficacy (EC50, Emax), α4β3δ; type: cell-based
[2] = Pharmacokinetic parameters in preclinical rodent studies; type: in vivo; set-up: Oral BA / ½ life: unit not given here
Protocol: The pharmacokinetic parameters of CV-10155 in preclinical studies on rodent models of seizure, anxiety, depression and EEG biomarker were analyzed.

[3] = 1 mg/kg (minimal effective dose), male and female subjects
[4] = 3 mg/kg, male and female subjects
[5] = 10 mg/kg, male and female subjects

α4β3δ Extra synaptic receptors (GABAA), sequence (P48169 36-554): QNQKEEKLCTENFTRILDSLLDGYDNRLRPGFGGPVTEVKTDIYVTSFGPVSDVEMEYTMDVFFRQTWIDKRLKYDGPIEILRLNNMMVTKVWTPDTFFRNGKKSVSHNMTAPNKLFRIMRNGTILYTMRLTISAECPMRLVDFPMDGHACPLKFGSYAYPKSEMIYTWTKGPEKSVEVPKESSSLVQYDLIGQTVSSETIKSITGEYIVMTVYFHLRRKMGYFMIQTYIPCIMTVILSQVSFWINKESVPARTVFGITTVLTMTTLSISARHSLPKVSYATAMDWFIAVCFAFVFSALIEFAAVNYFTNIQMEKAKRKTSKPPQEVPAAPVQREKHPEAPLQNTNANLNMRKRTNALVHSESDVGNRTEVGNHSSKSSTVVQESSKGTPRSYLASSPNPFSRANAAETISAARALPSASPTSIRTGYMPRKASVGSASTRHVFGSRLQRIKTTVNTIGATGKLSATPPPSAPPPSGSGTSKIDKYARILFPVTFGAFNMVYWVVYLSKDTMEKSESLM
α4β3δ Extra synaptic receptors (GABAA), sequence (P28472 26-473): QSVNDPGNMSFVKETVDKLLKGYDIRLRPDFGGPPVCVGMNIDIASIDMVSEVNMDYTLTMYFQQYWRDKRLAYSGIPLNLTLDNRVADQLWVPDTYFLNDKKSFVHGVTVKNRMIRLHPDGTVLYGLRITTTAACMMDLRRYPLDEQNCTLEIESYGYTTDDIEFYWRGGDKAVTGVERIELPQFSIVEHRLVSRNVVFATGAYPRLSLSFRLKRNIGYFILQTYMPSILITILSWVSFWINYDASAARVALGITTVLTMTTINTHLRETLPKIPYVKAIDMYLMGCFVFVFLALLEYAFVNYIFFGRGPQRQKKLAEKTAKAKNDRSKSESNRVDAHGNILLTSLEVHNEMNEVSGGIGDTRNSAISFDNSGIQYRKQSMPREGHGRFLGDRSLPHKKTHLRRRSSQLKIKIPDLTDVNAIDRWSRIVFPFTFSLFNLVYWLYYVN
α4β3δ Extra synaptic receptors (GABAA), sequence (O14764 25-452 partner): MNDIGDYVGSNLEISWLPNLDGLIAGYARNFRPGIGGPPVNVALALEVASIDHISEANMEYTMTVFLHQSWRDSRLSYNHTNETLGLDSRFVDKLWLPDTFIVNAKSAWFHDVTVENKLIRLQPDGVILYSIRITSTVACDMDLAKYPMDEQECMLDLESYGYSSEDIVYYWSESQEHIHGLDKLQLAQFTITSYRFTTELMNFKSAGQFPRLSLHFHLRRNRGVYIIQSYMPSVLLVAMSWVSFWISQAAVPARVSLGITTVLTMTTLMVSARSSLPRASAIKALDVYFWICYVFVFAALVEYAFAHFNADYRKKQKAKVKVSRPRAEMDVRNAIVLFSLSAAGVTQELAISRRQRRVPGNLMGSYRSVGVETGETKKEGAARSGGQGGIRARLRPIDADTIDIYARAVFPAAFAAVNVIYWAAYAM

C[C@@]1(O)CC[C@@]2(C)[C@@H](CC[C@@H]3[C@@H]2CC[C@]2(C)[C@@H](C(=O)Cn4cc(C#N)cn4)CC[C@@H]32)C1 [CV-10155, 1-[2-[(3R,5S,8R,9S,10S,13S,14S,17S)-3-hydroxy-3,10,13-trimethyl-1,2,4,5,6,7,8,9,11,12,14,15,16,17-tetradecahydrocyclopenta[a]phenanthren-17-yl]-2-oxoethyl]pyrazole-4-carbonitrile]
fold higher efficiency at extra synaptic vs. synaptic channels [1]: 3 fold
preferential modulation of α4β3δ subtype compared to α1β2γ2 subtype ([1]; isomerically pure compositions): preferentially modulate
AUC0-inf [2, 3]: 508-1301
Cmax [2, 3]: 84.4-128
Oral BA [2, 3]: 58.6-92.4
Tmax [2, 3]: 1.5-2^
½ life [2, 3]: 3.66-6.82
Oral BA ([2]; 2 mg/kg, only male subjects): 47.2
Tmax ([2]; 2 mg/kg, only male subjects, in h): 1.7
Cmax ([2]; 2 mg/kg, only male subjects, in ng/mL): 224
AUC0-inf ([2]; 2 mg/kg, only male subjects, in ng·h/mL): 1319
AUC0-inf [2, 4]: 1378-3899
Cmax [2, 4]: 270-440
Oral BA [2, 4]: 53-92.3
½ life [2, 4]: 2.84-4.96
Tmax ([2]; 3 mg/kg, male and female subjects, in h): 1.25-2.50
Oral BA ([2]; 5 mg/kg, only male subjects): 58.1
½ life ([2]; 5 mg/kg, only male subjects): 4.19
Tmax ([2]; 5 mg/kg, only male subjects, in h): 0.83
Cmax ([2]; 5 mg/kg, only male subjects, in ng/mL): 499
AUC0-inf ([2]; 5 mg/kg, only male subjects, in ng·h/mL): 2610
AUC0-inf [2, 5]: 6848-14667
Oral BA [2, 5]: 79.7-100
½ life [2, 5]: 3.23-4.80
Tmax ([2]; 10 mg/kg, male and female subjects, in h): 1.25-2.25
Cmax ([2]; 10 mg/kg, male and female subjects, in ng/mL): 1165

Source: patent US20230372364A1, “METHOD OF TREATING GABA MEDIATED DISORDERS” (Eliem Therapeutics (UK) Ltd, priority 2020, published 2023)
